Where two headings read alike, the source gives them in different places.
Key:
Format in all cases: cell-based, mouse
[1] = tested on: α7 integrin (LacZ reporter in α7βgal+/− myoblasts); assay: Myoblast α7+/LacZ integrin FDG assay (Burkin assay in myoblasts, 96-well); conditions: α7+/LacZ myoblasts, 96-well; for fold induction at 0.5 µM / fold induction at 1 µM / fold induction at 5 µM / fold induction at 10 µM / fold induction at 20 µM / fold induction at 40 µM: Mus musculus, Myoblast, 48 h
[2] = tested on: α7 integrin (LacZ reporter in α7+/LacZ myotubes); assay: Myotube α7 integrin FDG assay (Burkin assay in myotubes, 96-well); conditions: myotubes; for fold induction at 0.5 µM / fold induction at 1 µM / fold induction at 5 µM / fold induction at 10 µM / fold induction at 20 µM / fold induction at 40 µM: Mus musculus, Myotube
[3] = tested on: β-galactosidase in CMV-LacZ C2C12 myotubes; assay: CMV-LacZ secondary screen in C2C12 myotubes (β-Gal stabilizing assay); conditions: for CMV-LACZ in Myotubes, signal relative to DMSO / fold induction at 5 µM / fold induction at 10 µM / fold induction at 20 µM / fold induction at 40 µM: C2C12 CMV-LacZ myotubes, fold relative to DMSO; for fold induction at 5 µM / fold induction at 10 µM / fold induction at 20 µM / fold induction at 40 µM: Mus musculus; for fold induction at 5 µM: C2C12, read-out: CMV-LACZ in Myotubes, signal relative to DMSO, 5 uM; for fold induction at 10 µM: C2C12, read-out: CMV-LACZ in Myotubes, signal relative to DMSO, 10 uM; for fold induction at 20 µM: C2C12, read-out: CMV-LACZ in Myotubes, signal relative to DMSO, 20 uM; for fold induction at 40 µM: C2C12, read-out: CMV-LACZ in Myotubes, signal relative to DMSO, 40 uM; for CMV-LACZ in Myotubes (β-galactosidase activity relative to DMSO): CMV-LacZ C2C12 myotubes, 96-well format
Text: In order to determine compounds that acted to stabilize β-gal in myogenic cells, a CMV-LacZ C2C12 cell line was used in a secondary screen. The EGFP gene from the pEGFP (Clontech) vector was replaced by LACZ PCR product with digests of the vector/PCR product performed using EcoRI (NEB) and NotI (NEB) and ligated using T4 DNA Ligase (NEB) following standard procedures to produce the CMV-LACZ vector. The LACZ gene was generated by PCR from the pBK-RSV (Stratagene) vector using primers LACZ EcoRI F- and LACZ NotI R-. The CMV-LACZ vector was then digested with AfIII (NEB) to linearize the construct, which was then transfected in C2C12 myoblasts using Lipofectamine 2000 (Invitrogen) following the manufacturer's instructions. […] Clonal lines were selected and screened for βgal levels using the myoblast FDG assay.
The assays were used the original 96-well format and new dose-response curves for myoblasts (N=3-6 replicates for each data point), myotubes (N=3-6 replicates for data point), and CMV-LacZ secondary assay (N=2 replicates for each data point) using concentrations of 0.5 μM, 1 μM, 5 μM, 10 μM, 20 μM, and 40 μM (Tables 9-16).

SMILES | Burkin Assay in Myoblasts, signal relative to DMSO ([1]; 0.5 uM) | Burkin Assay in Myoblasts, signal relative to DMSO ([1]; 1 uM) | Burkin Assay in Myoblasts, signal relative to DMSO ([1]; 5 uM) | Burkin Assay in Myoblasts, signal relative to DMSO ([1]; 10 uM) | Burkin Assay in Myoblasts, signal relative to DMSO ([1]; 20 uM) | Burkin Assay in Myoblasts, signal relative to DMSO ([1]; 40 uM) | Burkin Assay in Myotubes, α7 integrin LacZ reporter signal relative to DMSO ([2]; 0.5 uM) | Burkin Assay in Myotubes, α7 integrin LacZ reporter signal relative to DMSO ([2]; 1 uM) | Burkin Assay in Myotubes, α7 integrin LacZ reporter signal relative to DMSO ([2]; 5 uM) | Burkin Assay in Myotubes, α7 integrin LacZ reporter signal relative to DMSO ([2]; 10 uM) | Burkin Assay in Myotubes, α7 integrin LacZ reporter signal relative to DMSO ([2]; 20 uM) | Burkin Assay in Myotubes, α7 integrin LacZ reporter signal relative to DMSO ([2]; 40 uM) | CMV-LACZ in Myotubes, signal relative to DMSO ([3]; 5 uM) | CMV-LACZ in Myotubes, signal relative to DMSO ([3]; 10 uM) | CMV-LACZ in Myotubes, signal relative to DMSO ([3]; 20 uM) | CMV-LACZ in Myotubes, signal relative to DMSO ([3]; 40 uM) | fold induction at 5 µM [3] | fold induction at 10 µM [3] | fold induction at 20 µM [3] | fold induction at 40 µM [3] | also measured
CNC(=O)/C(=C\c1cccc(Oc2ccccc2)c1)NC(=O)c1ccccc1 [MLS000389677-01] | 0.5325 | 0.8831 | 0.8426 | 0.7976 | 0.6619 | 0.6089 | 1.005 | 0.9156 | 1.109 | 0.9956 | 0.6421 | 0.953 | 0.8142 | 0.7418 | 1.019 | 0.761 | – | – | – | – | –
NS(=O)(=O)c1ccc(NC(=O)c2ccc(CNS(=O)(=O)c3cc(C(F)(F)F)ccc3Cl)cc2)cc1 [MLS000393110-01] | 0.9045 | 0.9273 | 1.074 | 1.088 | 1.012 | 0.71 | 1.139 | 0.9276 | 1.022 | 0.9816 | 0.6726 | 0.8173 | 1.103 | 0.9673 | 1.0745 | 0.8895 | – | – | – | – | –
COc1ccccc1C(=O)Nc1nc2cc3c(cc2s1)OCO3 [MLS000419555-01] | – | – | – | – | – | – | – | – | – | – | – | – | – | – | – | – | 1.22 | 1.21 | 1.22 | 1.22 | fold induction at 0.5 µM ([1]; 0.5 uM, read-out: Burkin Assay in Myoblasts, signal relative to DMSO): 1.19; fold induction at 1 µM ([1]; 1 uM, read-out: Burkin Assay in Myoblasts, signal relative to DMSO): 1.2; fold induction at 5 µM ([1]; 5 uM, read-out: Burkin Assay in Myoblasts, signal relative to DMSO): 1.07; fold induction at 10 µM ([1]; 10 uM, read-out: Burkin Assay in Myoblasts, signal relative to DMSO): 1.03; fold induction at 20 µM ([1]; 20 uM, read-out: Burkin Assay in Myoblasts, signal relative to DMSO): 0.948; fold induction at 40 µM ([1]; 40 uM, read-out: Burkin Assay in Myoblasts, signal relative to DMSO): 0.797; fold induction at 0.5 µM ([2]; 0.5 uM, read-out: Burkin Assay in Myotubes, α7 integrin LacZ reporter signal relative to DMSO): 1.05; fold induction at 1 µM ([2]; 1 uM, read-out: Burkin Assay in Myotubes, α7 integrin LacZ reporter signal relative to DMSO): 1.02; fold induction at 5 µM ([2]; 5 uM, read-out: Burkin Assay in Myotubes, α7 integrin LacZ reporter signal relative to DMSO): 1.15; fold induction at 10 µM ([2]; 10 uM, read-out: Burkin Assay in Myotubes, α7 integrin LacZ reporter signal relative to DMSO): 1.09; fold induction at 20 µM ([2]; 20 uM, read-out: Burkin Assay in Myotubes, α7 integrin LacZ reporter signal relative to DMSO): 1.01; fold induction at 40 µM ([2]; 40 uM, read-out: Burkin Assay in Myotubes, α7 integrin LacZ reporter signal relative to DMSO): 1.02
O=C(COC(=O)c1cc2ccccc2oc1=O)Nc1ccc(F)cc1F [MLS000516719-01] | – | – | – | – | – | – | – | – | – | – | – | – | – | – | – | – | – | – | – | – | Burkin Assay in Myoblasts, value relative to DMSO ([1]; 0.5 uM): 1.006; Burkin Assay in Myoblasts, value relative to DMSO ([1]; 1 uM): 1.048; Burkin Assay in Myoblasts, value relative to DMSO ([1]; 5 uM): 1.0321; Burkin Assay in Myoblasts, value relative to DMSO ([1]; 10 uM): 1.068; Burkin Assay in Myoblasts, value relative to DMSO ([1]; 20 uM): 0.9197; Burkin Assay in Myoblasts, value relative to DMSO ([1]; 40 uM): 0.9651; Burkin Assay in Myotubes (signal relative to DMSO) ([2]; 0.5 uM): 0.8618; Burkin Assay in Myotubes (signal relative to DMSO) ([2]; 1 uM): 1.0239; Burkin Assay in Myotubes (signal relative to DMSO) ([2]; 5 uM): 1.203; Burkin Assay in Myotubes (signal relative to DMSO) ([2]; 10 uM): 1.184; Burkin Assay in Myotubes (signal relative to DMSO) ([2]; 20 uM): 1.107; Burkin Assay in Myotubes (signal relative to DMSO) ([2]; 40 uM): 1.175; CMV-LACZ in Myotubes (β-galactosidase activity relative to DMSO) ([3]; 5 uM): 0.8894; CMV-LACZ in Myotubes (β-galactosidase activity relative to DMSO) ([3]; 10 uM): 1.114; CMV-LACZ in Myotubes (β-galactosidase activity relative to DMSO) ([3]; 20 uM): 1.103; CMV-LACZ in Myotubes (β-galactosidase activity relative to DMSO) ([3]; 40 uM): 1.072
CC1(C)Cc2c(ccc3ccccc23)C(=O)N1 [MLS000525404-01] | – | – | – | – | – | – | – | – | – | – | – | – | – | – | – | – | 0.76 | 0.873 | 0.841 | 0.75 | fold induction at 0.5 µM ([1]; 0.5 uM, read-out: Burkin Assay in Myoblasts, value relative to DMSO): 1; fold induction at 1 µM ([1]; 1 uM, read-out: Burkin Assay in Myoblasts, value relative to DMSO): 1.08; fold induction at 5 µM ([1]; 5 uM, read-out: Burkin Assay in Myoblasts, value relative to DMSO): 1.12; fold induction at 10 µM ([1]; 10 uM, read-out: Burkin Assay in Myoblasts, value relative to DMSO): 1.28; fold induction at 20 µM ([1]; 20 uM, read-out: Burkin Assay in Myoblasts, value relative to DMSO): 1.46; fold induction at 40 µM ([1]; 40 uM, read-out: Burkin Assay in Myoblasts, value relative to DMSO): 1.79; fold induction at 0.5 µM ([2]; 0.5 uM, read-out: Burkin Assay in Myotubes (signal relative to DMSO)): 1.04; fold induction at 1 µM ([2]; 1 uM, read-out: Burkin Assay in Myotubes (signal relative to DMSO)): 1.04; fold induction at 5 µM ([2]; 5 uM, read-out: Burkin Assay in Myotubes (signal relative to DMSO)): 1.12; fold induction at 10 µM ([2]; 10 uM, read-out: Burkin Assay in Myotubes (signal relative to DMSO)): 1.09; fold induction at 20 µM ([2]; 20 uM, read-out: Burkin Assay in Myotubes (signal relative to DMSO)): 1.19; fold induction at 40 µM ([2]; 40 uM, read-out: Burkin Assay in Myotubes (signal relative to DMSO)): 1.35
Cc1cc2ccccc2n2c(SCC(=O)NCc3cccs3)nnc12 [MLS000526364-01] | 0.9747 | 0.9502 | 1.045 | 1.085 | 1.114 | 1.029 | 0.9648 | 0.8953 | 1.033 | 0.8908 | 1.358 | 0.9162 | 0.9507 | 0.953 | 1.1735 | 1.1865 | – | – | – | – | –

Reference: patent publication US9980943B2, “Methods of treating muscular dystrophy” (BOARD OF REGENTS OF THE NEVADA SYSTEM OF HIGHER EDUCATION, …, priority 2013, dated 2018)
